From patent publication EP0791603A2, “Pure somatostatin antagonist and methods of use thereof” (American Cyanamid Company, priority 1996, dated 1997)
pIC50, pKi: −log10 of the molar value. Positions of bridges follow the written chain, without caps; N, C: chain ends. Non-standard residues stand in square brackets, D forms with d. Residues, ends and D or L forms follow the SMILES beside them. Phe(4-NO2) = N[C@@H](Cc1ccc([N+](=O)[O-])cc1)C(=O)O; dPhe(4-NO2) = N[C@H](Cc1ccc([N+](=O)[O-])cc1)C(=O)O; 2Nal = N[C@@H](Cc1ccc2ccccc2c1)C(=O)O; NMeA = CN[C@@H](C)C(=O)O

Key:
[1] = tested on: SSTR2; test: Cyclic AMP accumulation in intact cells (forskalin stimulated, adrenal binding protein method); type: cell-based; conditions: % intrinsic activity
From the text: Cyclic AMP accumulation assays are used to determine the functional coupling of somatostatin receptors to effectors. All five cloned somatostatin receptors inhibit cyclic AMP accumulation and adenylyl cyclone activity ^1 ^,2,3,4,5. This evaluation measures cyclic AMP accumulation from intact cells using the adrenal binding protein method. Signal transduction by somatostatin is mediated by lowering intracellular c-AMP levels. This functional assay measures the ability of the test compound to inhibit the effect of somatostatin on forskalin stimulated c-AMP levels. ^1 K. Yasuda, S. Rens-Damiano, C. D. Breder, S. F. Law, C. B. Saper, T. Reisine and G. I. Bell, J. Biol. Chem. 267,20422-20428 (1992). ^2 J. F. Bruno, Y. Xu, J. Song and M. Berelowitz, Proc. Natl. Acad. Sci. USA 89, 11151-11155 (1992). ^3 A. M. O'Carrol, S. J. Lolait, M. König and L. Mahan, Mol. Pharmacol. 42, 939-946 (1992). ^4 J. R. Hadcock, J. Strnad and C. M. Eppler, Mol. Pharmacol. 45, 410-416 (1994). ^5 J. Strnad, C. M. Eppler, M. Corbett and J. R. Hadcock, Biochem. Biophys. Res. Commun.191, 968-976 (1993).
Bovine adrenal gland extracts are prepared according to the method of Brown et al^6 with minor modifications. […] Two-four adrenals are thawed and the cortices are separated on ice: chopped into small pieces; resuspended in 1.5 volumes of buffer containing 0.25 M sucrose, 50 mM Tris-HCl pH 7.4, 25 mM KCl, 5 mM MgCl2 and protease inhibitors (5 µg/ml leupeptin, 5µg/ml aprotinin, 100 µg/ml bacitracin, and 100 µg/ml benzamidine; homogenized with a Polytron and centrifuged for 5 minutes. The resultant supernatant is saved and centrifuged for 15 minutes. This resultant supernatant is saved and stored as 1 mL aliquots at -80°C. Four adrenals glands are usually sufficient to prepare 30-50 one mL aliquots. Each preparation is tested with standards at different dilutions before use in the following experiment. ^6 B. L. Brown, J. D. M. Albano, R. P. Ekins and A. M. Sgherzi, Biochem. J. 121, 561-562 (1971).
Somatostatin-mediated inhibition of cyclic AMP accumulation is measured in intact cells co-incubated with the diterpene forskalin (5 µM) which activates adenylyl cyclase directly and stimulates cyclic AMP accumulation in cells. The medium is aspirated from two 100 mm plates of cells, a 5 mL portion of phosphate-buffered saline containing 2 mM EDTA is added to each plate. The cells are washed off the plate, without scraping. The cells are then pelleted and resuspended in Kreb's Ringers Phosphate (KRP) containing 2 mM CaCl2 (added fresh), washed once and resuspended in 2 ml of KRP with a CaCl2 containing 100 µM IBMX. The cells are counted and the concentration of cells is adjusted to 50,000/70 µl and incubated 15 minutes at room temperature before starting the assay. […]

[2] = biological target: SSTR2 (Rattus norvegicus, UniProt P30680); test: Competitive binding, displacement of [125I]Tyr11 S-14; parameters: expressed in transfected cells; conditions: [125I]Tyr11 S-14 250 pM, room temperature 2 hours
Chain of SSTR2 (Rattus norvegicus, UniProt P30680) (P30680 whole entry): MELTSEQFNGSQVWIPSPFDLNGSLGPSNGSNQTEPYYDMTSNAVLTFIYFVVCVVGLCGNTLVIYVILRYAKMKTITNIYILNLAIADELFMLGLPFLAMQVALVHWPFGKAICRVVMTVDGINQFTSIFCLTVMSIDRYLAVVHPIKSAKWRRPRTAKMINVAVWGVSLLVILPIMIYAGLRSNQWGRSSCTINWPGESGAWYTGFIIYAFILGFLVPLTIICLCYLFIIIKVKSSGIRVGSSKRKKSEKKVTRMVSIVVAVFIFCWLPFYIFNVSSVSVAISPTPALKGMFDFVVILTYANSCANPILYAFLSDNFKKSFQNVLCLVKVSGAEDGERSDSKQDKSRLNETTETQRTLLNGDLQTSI
Experimental: In this evaluation the concentration of test compound required to displace 50% of somatostatin, SRIF, from the SRIF receptor subtypes expressed in mammalian cells is measured, i.e., the concentration required to inhibit 50% of [^125I] Tyr^11 S-14 (Amersham) (IC50) from binding to the SRIF receptor subtypes.
Radiolabeled SRIF is mixed with pituitary cells, the test compound is added, the mixture is incubated and the radioactivity is measured as compared to control. Reduced radioactivity indicates successful competitive binding of the test compound to the pituitary cell receptor. The concentration of the test compound in nanomolar units required to displace 50% of SRIF from the pituitary cell receptor is calculated and reported in Table II as the IC50 value. Also calculated is the inhibitory constant, Ki.
Tyr^11S-14 (150,000 cpm at 2000 Ci/mmole, 250 pM final concentration). The binding reaction is initiated by adding 2-60µg of membrane protein in a 170 µL volume. Final reaction volume is 200 µl/well. All incubations are carried out at room temperature for 2 hours. Free radioligand is separated from bound ligand by rapid filtration through a glass fiber filter (IH-201-HA) using an Inotech cell harvester. The filter is then washed several times with cold (4°C) binding buffer lacking BSA and protease inhibitors prior to counting in an LKB gamma master counter (78% efficiency). Whatman GFC filters presoaked in 0.3% polyethylenimine (to decrease background) are used.
The IC50 values and Ki values are calculated using the well-known methods described by Y. Cheng and W. H. Prusoff, Biochem. Pharmacol. 22, 3099-3108 (1973), incorporated herein by reference thereto.

Row | pIC50 ([2]; membrane protein, read-out: SSTR2 Binding Affinity IC50) | pKi ([2]; calculated by Cheng and Prusoff, read-out: SSTR2 Binding Affinity Ki) | SMILES | % IA [1] [%]
1 | – | – | C[C@@H](O)[C@@H]1NC(=O)[C@H](CCCCN)NC(=O)[C@@H](Cc2c[nH]c3ccccc23)NC(=O)[C@H](Cc2ccc(O)cc2)NC(=O)[C@H](NC(=O)[C@@H](N)Cc2ccc(I)cc2)CSSC[C@@H](C(=O)N[C@@H](Cc2ccc(O)cc2)C(N)=O)NC1=O | -12
2 | – | – | NCCCC[C@@H]1NC(=O)[C@@H](Cc2c[nH]c3ccccc23)NC(=O)[C@H](Cc2ccc(O)cc2)NC(=O)[C@H](NC(=O)[C@@H](N)Cc2ccc([N+](=O)[O-])cc2)CSSC[C@@H](C(=O)N[C@@H](Cc2ccc3ccccc3c2)C(N)=O)NC(=O)[C@H](CO)NC1=O (H-[Phe(4-NO2)][dC]Y[dW]KSC[2Nal]-NH2; disulfide 2-7) | 7
3 | – | – | CC(C)[C@@H]1NC(=O)[C@H](CCCCN)NC(=O)[C@@H](Cc2c[nH]c3ccccc23)NC(=O)[C@H](Cc2ccc(O)cc2)NC(=O)[C@H](NC(=O)[C@H](N)Cc2ccc([N+](=O)[O-])cc2)CSSC[C@@H](C(=O)N[C@@H](Cc2ccc(O)cc2)C(N)=O)NC1=O (H-[dPhe(4-NO2)][dC]Y[dW]KVCY-NH2; disulfide 2-7) | 42
4 | 7.26 | 7.61 | CC(C)[C@@H]1NC(=O)[C@H](CCCCN)NC(=O)[C@@H](Cc2c[nH]c3ccccc23)NC(=O)[C@H](Cc2ccc(O)cc2)NC(=O)[C@H](NC(=O)[C@@H](N)Cc2ccc([N+](=O)[O-])cc2)CSSC[C@@H](C(=O)N(C)[C@@H](C)C(N)=O)NC1=O [H-p-NO2Phe-D-Cys-Tyr-D-Trp-Lys-Val-Cys-N(CH3)Ala-NH2] (H-[Phe(4-NO2)][dC]Y[dW]KVC[NMeA]-NH2; disulfide 2-7) | 29
